Assay results published in PMC11599599, “Synthesis, characterization, molecular docking, pharmacokinetics, and molecular dynamics of new bis-thiazoles based on bis-thiosemicarbazone as anti-coxsackievirus” (Scientific Reports, 2024).

Legend:
[1] = test system: Cox B virus; test: Plaque reduction assay against Cox B virus; format: cell-based; conditions: for inhibition at 20 µg/mL / inhibition at 40 µg/mL: Vero
Procedure: (§1) Compounds: 10 mg were dissolved in 1 mL (10% DMSO and 90% deionized water), sterilized by 1% antibiotic–antimycotic mixture and stored in −20.
(§2) Cells: Vero cell line was used. The cells were propagated in DMEM medium (Lonza, USA) supplemented with 10% fetal bovine serum (Gibco, USA), 1% antibiotic–antimycotic mixture (Lonza, USA).
Virus: Cox B virus was propagated and titrated to give final count of 0.9 × 10^5 viral particle/mL.
This test was done according to Tebas et al.[47], In a 12-well plate Vero cells (10^5 cells/mL) were cultivated for 1 day at 37 °C. The Cox B virus was mixed with the safe concentration of the compound and incubated for 1 h at 37 °C before being added to the cells. Following the removal of the growth media, the cells were injected with virus-extract combinations ([…]) and then rinsed with PBS (Phosphate Buffer Saline). Following a one-hour contact period for virus adsorption, the cell monolayer was supplemented with one milliliter of Dulbecco’s Modified Eagles Media (DMEM) containing 2% agarose. The plates were then allowed to solidify and incubated at 37 °C until the development of viral plaques. Formalin (10%) was added for 2 h then plates were stained with crystal violet. Control wells were included where untreated virus was incubated with Vero cells and finally plaques were counted and percentage reduction in plaques formation in comparison to control wells was recorded as following:
% inhibition = (viral count(untreated) - viral count(treated))/viral count(untreated)X100.

[2] = test system: Vero cells; test: Cytotoxicity assay on Vero cells (microscopic morphology); format: cell-based; set-up: key to Cytotoxicity on Vero cells (cell sheet affected): -: Safe concentration; + 1, +2, + 3, +4: about 25, 50, 75, 100% of cell sheet was affected respectively; + 1, +2, + 3, +4: about 25, 50, 75, 100% of cell sheet was affected respectively; + 1, +2, + 3, +4: about 25, 50, 75, 100% of cell sheet was affected respectively; + 1, +2, + 3, +4: about 25, 50, 75, 100% of cell sheet was affected respectively; M: masked (color of compounds made cells unseen); conditions: for Cytotoxicity on Vero cells (cell sheet affected): 24 h, morphological changes; for Safety effect on Vero cells (in words): Table 1, 24 h
Procedure: as §1, §2
Cytotoxic effect of compounds was measured by inoculation different doses of compounds on tested cells then examining them microscopically after 24 h to determine any morphological changes that appeared on cells as a result of being subjected to the compounds[46]. Vero cells were seeded onto 96-well plates, which were then incubated for the whole night. After a 24-hour incubation period at 37 °C in a humidified incubator with 5% CO2, compounds were injected at concentrations of 10, 20, 30, 40, 50, 60, 70, 80, 90, and 100 µg /100 µl. Any morphological changes were monitored under a microscope.

## COc1ccc(OC)c(C=C2/C(=N/Nc3nc(C)c(/N=N/c4ccc(C)cc4)s3)c3ccccc3/C2=N\Nc2nc(C)c(/N=N/c3ccc(C)cc3)s2)c1 [7b, 2,2’-(((1E,3E)−2-(2,5-dimethoxybenzylidene)−1H-indene-1,3(2H)-diylidene)bis(hydrazin-1-yl-2-ylidene))bis(4-methyl-5-((E)-p-tolyldiazenyl)thiazole)]
[1]; 20 ug/mL
  Viral count (treated): 1.6 × 10^7
[1]; 40 ug/mL
  Viral count (treated): 1.07 × 10^7
[1]
  inhibition at 20 µg/mL: 0%
  inhibition at 40 µg/mL: 33%
[2]; 10 µg/100µl
  Cytotoxicity on Vero cells (cell sheet affected): -
[2]; 20 µg/100µl
  Cytotoxicity on Vero cells (cell sheet affected): -
[2]; 30 µg/100µl
  Cytotoxicity on Vero cells (cell sheet affected): -
[2]; 40 µg/100µl
  Cytotoxicity on Vero cells (cell sheet affected): -
[2]; 50 µg/100µl
  Cytotoxicity on Vero cells (cell sheet affected): -
[2]; 60 µg/100µl
  Cytotoxicity on Vero cells (cell sheet affected): M
[2]; 70 µg/100µl
  Cytotoxicity on Vero cells (cell sheet affected): M
[2]; 80 µg/100µl
  Cytotoxicity on Vero cells (cell sheet affected): M
[2]; 90 µg/100µl
  Cytotoxicity on Vero cells (cell sheet affected): M
[2]; 100 µg/100µl
  Cytotoxicity on Vero cells (cell sheet affected): M
[2]
  Safety effect on Vero cells (in words): dense and coloured that made masking to the cell sheet
other
  melting point: 132 to 135 °C

## COc1ccc(OC)c(C=C2/C(=N/Nc3nc(C)c(/N=N/c4ccc(Cl)cc4)s3)c3ccccc3/C2=N\Nc2nc(C)c(/N=N/c3ccc(Cl)cc3)s2)c1 [7c, 2,2’-(((1E,3E)−2-(2,5-dimethoxybenzylidene)−1H-indene-1,3(2H)-diylidene)bis(hydrazin-1-yl-2-ylidene))bis(5-((E)-(4-chlorophenyl)diazenyl)−4-methylthiazole)]
[1]; 20 ug/mL
  Viral count (treated): 1.07 × 10^7
[1]; 40 ug/mL
  Viral count (treated): 1.6 × 10^7
[1]
  inhibition at 20 µg/mL: 33%
  inhibition at 40 µg/mL: 0%
[2]; 10 µg/100µl
  Cytotoxicity on Vero cells (cell sheet affected): -
[2]; 20 µg/100µl
  Cytotoxicity on Vero cells (cell sheet affected): -
[2]; 30 µg/100µl
  Cytotoxicity on Vero cells (cell sheet affected): -
[2]; 40 µg/100µl
  Cytotoxicity on Vero cells (cell sheet affected): -
[2]; 50 µg/100µl
  Cytotoxicity on Vero cells (cell sheet affected): -
[2]; 60 µg/100µl
  Cytotoxicity on Vero cells (cell sheet affected): -
[2]; 70 µg/100µl
  Cytotoxicity on Vero cells (cell sheet affected): -
[2]; 80 µg/100µl
  Cytotoxicity on Vero cells (cell sheet affected): -
[2]; 90 µg/100µl
  Cytotoxicity on Vero cells (cell sheet affected): M
[2]; 100 µg/100µl
  Cytotoxicity on Vero cells (cell sheet affected): M
[2]
  Safety effect on Vero cells (in words): dense and coloured that made masking to the cell sheet

## COc1ccc(OC)c(C=C2/C(=N/Nc3nc(C)c(/N=N/c4ccc([N+](=O)[O-])cc4)s3)c3ccccc3/C2=N\Nc2nc(C)c(/N=N/c3ccc([N+](=O)[O-])cc3)s2)c1 [7d, 2,2’-(((1E,3E)−2-(2,5-dimethoxybenzylidene)−1H-indene-1,3(2H)-diylidene)bis(hydrazin-1-yl-2-ylidene))bis(4-methyl-5-((E)-(4-nitrophenyl)diazenyl)thiazole)]
[1]; 20 ug/mL
  Viral count (treated): 1.6 × 10^7
[1]; 40 ug/mL
  Viral count (treated): 0.54 × 10^7
[1]
  inhibition at 20 µg/mL: 0%
  inhibition at 40 µg/mL: 66%
[2]; 10 µg/100µl
  Cytotoxicity on Vero cells (cell sheet affected): -
[2]; 20 µg/100µl
  Cytotoxicity on Vero cells (cell sheet affected): -
[2]; 30 µg/100µl
  Cytotoxicity on Vero cells (cell sheet affected): -
[2]; 40 µg/100µl
  Cytotoxicity on Vero cells (cell sheet affected): -
[2]; 50 µg/100µl
  Cytotoxicity on Vero cells (cell sheet affected): -
[2]; 60 µg/100µl
  Cytotoxicity on Vero cells (cell sheet affected): -
[2]; 70 µg/100µl
  Cytotoxicity on Vero cells (cell sheet affected): -
[2]; 80 µg/100µl
  Cytotoxicity on Vero cells (cell sheet affected): -
[2]; 90 µg/100µl
  Cytotoxicity on Vero cells (cell sheet affected): -
[2]; 100 µg/100µl
  Cytotoxicity on Vero cells (cell sheet affected): -
[2]
  Safety effect on Vero cells (in words): higher safety
other
  melting point: 181 to 183 °C

## COc1ccc(OC)c(C=C2/C(=N/NC3=NC(=O)C(C)S3)c3ccccc3/C2=N\NC2=NC(=O)C(C)S2)c1 (stereo not shown) [9b, 2,2’-(((1E,3E)−2-(2,5-dimethoxybenzylidene)−1H-indene-1,3(2H)-diylidene)bis(hydrazin-1-yl-2-ylidene))bis(5-methylthiazol-4(5H)-one)]
[2]; 10 µg/100µl
  Cytotoxicity on Vero cells (cell sheet affected): -
[2]; 20 µg/100µl
  Cytotoxicity on Vero cells (cell sheet affected): -
[2]; 30 µg/100µl
  Cytotoxicity on Vero cells (cell sheet affected): -
[2]; 40 µg/100µl
  Cytotoxicity on Vero cells (cell sheet affected): -
[2]; 50 µg/100µl
  Cytotoxicity on Vero cells (cell sheet affected): -
[2]; 60 µg/100µl
  Cytotoxicity on Vero cells (cell sheet affected): -
[2]
  Safety effect on Vero cells (in words): highly toxic at low concentration
other
  melting point: 198 to 200 °C
